Source: patent publication US6670345B1 (Dabur Research Foundation, priority 1997, dated 2003)
Converted amounts (≈) assume the structure as drawn.

What was measured:
Conditions in all cases: 72 hours
[1] = test system: leukemia cells (MOLT-4); test: MTT cytotoxicity assay, leukemia cells (MOLT-4); format: cell-based, human
Description: (§1) After 72 hours, the assay was terminated and percent cyotoxicities calculated.

[2] = test system: lymphoma cells (U937); test: MTT cytotoxicity assay, lymphoma cells (U937); format: cell-based, human
Description: as §1

[3] = test system: human prostate (DU145); test: MTT cytotoxicity assay, human prostate (DU145); format: cell-based
Description: as §1

[4] = test system: human colon (HT29); test: MTT cytotoxicity assay, human colon (HT29); format: cell-based
Description: as §1

[5] = test system: human larynx (HeP.2); test: MTT cytotoxicity assay, human larynx (HeP.2); format: cell-based
Description: as §1

[6] = test system: human lung (L132); test: MTT cytotoxicity assay, human lung (L132); format: cell-based
Description: as §1

[7] = test system: ovarian cancer cells (PA-1); test: MTT cytotoxicity assay, ovarian cancer cells (PA-1); format: cell-based, human
Description: as §1

## C=CC(=O)OC(=O)C12CCC(C(=C)C)C1C1CCC3C4(C)CCC(O)C(C)(C)C4CCC3(C)C1(C)CC2 (centres unmarked) [Derivative 1101]
[1]
  ED50 Leukemia MOLT-4: 1.9 µg/mL (≈ 3.72 µM)
[2]
  ED50 Lymphoma U937: 1.2 µg/mL (≈ 2.35 µM)
[3]
  ED50 Prostate DU 145: >10 µg/mL
[4]
  ED50 Colon HT-29: >10 µg/mL
[5]
  ED50 Larynx Hep. 2: 1.6 µg/mL (≈ 3.13 µM)
[6]
  ED50 Lung L 132: 1.7 µg/mL (≈ 3.33 µM)
[7]
  ED50 Ovary PA-I: 3.5 µg/mL (≈ 6.85 µM)

## C=C(C)C1CCC2(C(=O)O)CCC3(C)C(CCC4C5(C)CCC(OC(=O)c6ccc(CCCCCCC)cc6)C(C)(C)C5CCC43C)C12 (centres unmarked) [Derivative 1138]
[1]
  ED50 Leukemia MOLT-4: 2.0 µg/mL (≈ 3.03 µM)
[2]
  ED50 Lymphoma U937: 1.1 µg/mL (≈ 1.67 µM)
[3]
  ED50 Prostate DU 145: >10 µg/mL
[4]
  ED50 Colon HT-29: >10 µg/mL
[5]
  ED50 Larynx Hep. 2: 2.0 µg/mL (≈ 3.03 µM)
[6]
  ED50 Lung L 132: 7.0 µg/mL (≈ 10.6 µM)
[7]
  ED50 Ovary PA-I: 1.3 µg/mL (≈ 1.97 µM)
